Laboratory results as given in US20090215783A1, “COMPOSITION FOR INDUCTION OR INHIBITION OF STEM CELL DIFFERENTIATION” (CHOONGWAE PHARMA CORPORATION, priority 2006, published 2009).

Columns and labels:
[1] = system: human bone marrow derived-mesenchymal stem cells (hBMMSC); experiment: Osteogenesis modulating activity assay by test compound alone (ALP activity); type: cell-based; conditions: Homo sapiens, 168 h; hBMMSC, 20 μM test compound alone, six to seven days; read-out: Osteogenesis: fold change of ALP activity compared with DMSO control
Protocol: Cell culture: Human bone marrow derived-mesenchymal stem cells (hBMMSC) were isolated from normal subjects.
Osteogenesis modulating activity assay by test compound alone: hBMMSC were cultivated in the culture medium and cells were seeded into 96-well culture plates and test compounds were dissolved in DMSO and diluted with culture media (final 0.01% DMSO) and added into the media (final concentration of test compound was 20 μM) and cultured in the CO2 incubator (37° C., 5% CO2). Culture medium was changed every two days with fresh one and compound was treated again whenever medium was changed. Six to seven days after incubation, Alkaline phosphatase activity of cell lysates was measured by colorimetry. For the determination of mineralization within the cells, Von Kossa staining or Alizarin Red S assay was performed 10-14 days after incubation.

[2] = system: Mouse embryonic stem (ES) cells, TC1; experiment: Cardiomyogenesis modulating activity assay (alpha-MHC promoter EGFP, embryoid bodies, FACS/fluorescence microscopy); type: cell-based; conditions: embryoid bodies treated for 5 days, FACS
Protocol: a. Cell culture: Mouse embryonic stem (ES) cells, TC1 derived from 129/S6 strain were cultured on irradiated feeder layer in the culture medium which is high-glucose DMEM (Gibco) BRL, Germany) supplemented with 15% FBS (Hyclone), 0.1 mM beta-mercaptoethanol, […] sodium pyruvate, 1 mM L-glutamine and 1× non-essential amino acids.
b. Establishment of alpha-MHC stably transformed ES cell line: A construct (FIG. 8) containing 1.8 kb promoter sequence of the mouse alpha-MHC gene between EcoRI and SalI sites of pEGFP-1 (Clontech Laboratories, Inc, CA, USA) was linearized at XhoI site, and was introduced into mouse ES cells, TC1, using the Gene Pulser II (BioRad, MA). A selection medium containing G418 was applied for two weeks from 24 hours after electroporation. The selected ES cell clones were harvested and expanded on the feeder cell layer. The green fluorescence-expressing clones when differentiated into cardiomyocytes were used in this experiment.
c. Cardiomyogenesis modulating activity assay: Embryoid body (EB) was formed by hanging drop culture using about a number of 600 (six hundred) ES cells for two days and it was further expanded by culturing in suspension condition on a Petri-dish for another two days. Then each EB was plated on a well of 96 well culture plates. Test compounds were dissolved in DMSO and diluted with culture media (final 0.05% DMSO) and EB was treated with test compound for 5 days. Culture medium was changed every three days after plating. Expression level of EGFP was measured with FACS (Beckman). For FACS analysis, differentiating cells were dissociated with trypsin. For the determination of the extent of differentiation, EB was observed and photographed with an inverted fluorescence microscope (Zeiss, Germany). Number of beating EBs was counted under the microscope and recorded once daily.

Compound	fold induction at 20 µM [1]	Cardiomyogenesis: fold change of EGFP expression level compared with DMSO control [2]
CN1CC(=O)N2[C@@H](Cc3ccc(Cl)cc3)C(=O)N(CCc3ccccc3)C[C@@H]2N1C(=O)NCc1ccccc1 [#39]	0.79	0.29 fold
O=C1[C@H](Cc2ccc(F)cc2)N2C(=O)CN(Cc3ccccc3)N(C(=O)NCc3ccccc3)[C@H]2CN1CCc1ccc(Cl)cc1 [#80]	0.19	1.49 fold
CC(C)C[C@H]1C(=O)N(CC(=O)N(Cc2ccccc2)c2ccccc2)CC2N1C(=O)CN(C)N2C(=O)NCc1ccccc1 (stereo partly drawn) [#2]	1.09	1.11 fold
CC(C)[C@H]1C(=O)N(Cc2cccc(Br)c2)C[C@H]2N1C(=O)N(C)N2C(=O)NCc1ccccc1 [#106]	0.37	1.25 fold
CC(C)[C@H]1C(=O)N(Cc2cccc(F)c2)C[C@H]2N1C(=O)CN(Cc1ccccc1)N2C(=O)NCc1ccccc1 [#55]	0.98	1.26 fold
C#CCN1CC(=O)N2C(Cc3ccc(C)cc3)C(=O)N(CCCCCCC)C[C@@H]2N1C(=O)NCc1ccccc1 (stereo partly drawn) [#51]	0.31	0.49 fold
C=CCOC(=O)NCCC[C@@H]1C(=O)N(CCc2ccccc2)C[C@H]2N1C(=O)CN(CC=C)N2C(=O)NCc1ccccc1 [#91]	1.13	2.23 fold
O=C1[C@H](CC2CCCCC2)N2C(=O)CN(Cc3ccccc3)N(C(=O)NCc3ccccc3)[C@H]2CN1CCc1ccc(Cl)cc1 [#79]	0.58	1.67 fold
C=CCN1CC(=O)N2[C@@H](Cc3ccc(F)cc3)C(=O)N(Cc3ccc(F)cc3)C[C@@H]2N1C(=O)NCc1ccccc1 [#85]	0.62	1.65 fold
CCC(C)[C@H]1C(=O)N(Cc2cccc(F)c2)C[C@H]2N1C(=O)CN(Cc1ccccc1)N2C(=O)NCc1ccccc1 (stereo partly drawn) [#57]	0.64	0.43 fold
CCCCNC(=O)N1[C@H]2CN(CCCCc3ccccc3)C(=O)[C@H](C(C)CC)N2C(=O)CN1Cc1cccc(F)c1 (stereo partly drawn) [#41]	0.6	2.15 fold
C=CCN1CC(=O)N2[C@@H](Cc3ccc(C)cc3)C(=O)N(Cc3ccc(F)cc3)C[C@@H]2N1C(=O)NCc1ccccc1 [#84]	0.69	1.32 fold
CC(C)CN1C[C@H]2N(C(=O)CN(C)N2C(=O)NCc2ccccc2)[C@@H](Cc2ccc(O)cc2)C1=O [#15]	1.12	0.41 fold
C=CCN1CC(=O)N2C(CN(CCc3ccccc3)C(=O)[C@@H]2CCC(=O)O)N1C(=O)NCc1ccccc1 (stereo partly drawn) [#89]	1.16	1.26 fold
CN1CC(=O)N2C(CN(Cc3ccc(F)cc3)C(=O)[C@@H]2Cc2ccc(O)cc2)N1C(=O)NCc1ccccc1 (stereo partly drawn) [#9]	0.24	1.59 fold
O=C1[C@H](COCc2ccccc2)N2C(=O)CN(Cc3ccccc3)N(C(=O)NCc3ccccc3)[C@H]2CN1CCc1ccc(Cl)cc1 [#73]	0.64	1.57 fold
CC(C)C[C@@H]1C(=O)N(Cc2cccc(C(F)(F)F)c2)C[C@@H]2N1C(=O)CN(Cc1ccc(F)cc1)N2C(=O)NCc1ccccc1 [#63]	0.41	0.47 fold

Compound	fold induction at 20 µM [1]	Cardiomyogenesis: fold change of EGFP expression level compared with DMSO control [2]
O=C1[C@H](Cc2ccc(F)cc2)N2C(=O)CN(Cc3ccc(F)cc3)N(C(=O)NCc3ccccc3)[C@H]2CN1Cc1cccc(C(F)(F)F)c1 [#70]	1.03	0.92 fold
C=CCN1CC(=O)N2[C@@H](Cc3ccccc3)C(=O)N(CCc3ccccc3)C[C@@H]2N1C(=O)NCc1ccccc1 [#87]	0.59	0.89 fold
O=C1[C@H](Cc2ccc(OCc3ccccc3)cc2)N2C(=O)CN(Cc3ccccc3)N(C(=O)NCc3ccccc3)[C@H]2CN1CCc1ccc(Cl)cc1 [#77]	0.98	1.40 fold
Cc1ccc(C[C@H]2C(=O)N(Cc3cccc(C(F)(F)F)c3)C[C@H]3N2C(=O)CN(Cc2ccc(F)cc2)N3C(=O)NCc2ccccc2)cc1 [#67]	0.8	1.50 fold
CCCCNC(=O)N1[C@H]2CN(CCCCc3ccccc3)C(=O)[C@H](CCC)N2C(=O)CN1Cc1cccc(F)c1 [#42]	0.31	1.87 fold
COc1ccc(C[C@H]2C(=O)N(Cc3cccc(C(F)(F)F)c3)C[C@H]3N2C(=O)CN(Cc2ccc(F)cc2)N3C(=O)NCc2ccccc2)cc1 [#65]	1.34	2.54 fold
CCCCNC(=O)N1[C@H]2CN(CCc3ccc(OC)cc3)C(=O)[C@H](Cc3ccc(O)cc3)N2C(=O)CN1Cc1ccc(C)cc1 [#96]	0.77	0.54 fold
CCC(C)[C@H]1C(=O)N(CCC(c2ccccc2)c2ccccc2)C[C@H]2N1C(=O)N(C)N2C(=O)NCc1ccccc1 (stereo partly drawn) [#103]	0.98	1.98 fold
C=CCN1CC(=O)N2[C@@H](CC(C)C)C(=O)N(CCc3ccccc3)C[C@@H]2N1C(=O)NCc1ccccc1 [#86]	0.54	1.34 fold
COc1ccc(C[C@H]2C(=O)N(CCc3ccccc3)C[C@H]3N2C(=O)CN(C)N3C(=O)NCc2ccccc2)cc1 [#34]	1.03	1.71 fold
CC(C)CN1C[C@H]2N(C(=O)CN(C)N2C(=O)NCc2ccccc2)[C@@H](CCC(=O)O)C1=O [#17]	1.29	2.52 fold
O=C1[C@H](Cc2ccc(Cl)cc2)N2C(=O)CN(Cc3ccc(F)cc3)N(C(=O)NCc3ccccc3)[C@H]2CN1Cc1cccc(C(F)(F)F)c1 [#72]	0.84	1.76 fold
C=CCOC(=O)NCCC[C@@H]1C(=O)N(Cc2ccc(OC)cc2)CC2N1C(=O)CN(C)N2C(=O)NCc1ccccc1 (stereo partly drawn) [#26]	1.01	1.74 fold
CC(C)CN1C[C@H]2N(C(=O)CN(C)N2C(=O)NCc2ccccc2)[C@@H](c2ccccc2)C1=O [#18]	0.93	2.01 fold
CCCCNC(=O)N1[C@H]2CN(CCCCc3ccccc3)C(=O)[C@H](Cc3ccc(O)cc3)N2C(=O)CN1Cc1cccc(F)c1 [#40]	0.69	1.11 fold
CC(C)C[C@H]1C(=O)N(CC(=O)N(c2ccccc2)c2cccc(Cl)c2)C[C@H]2N1C(=O)CN(C)N2C(=O)NCc1ccccc1 [#4]	0.59	0.40 fold
